What was measured:
Rattus norvegicus [1] = assay: Antiinflammatory activity in Sprague-Dawley rat model of carrageenan-induced thermal hyperalgesia assessed as paw withdrawal latency pressure at 50 mg/kg, po administered 1 hr prior to carrageenan challenge and measured after 1 hr by Randall-Selitto test (reference value: 246.55 +/- 1.05 g); assay type: functional
Rattus norvegicus [2] = assay: Antiinflammatory activity in Sprague-Dawley rat model of carrageenan-induced thermal hyperalgesia assessed as paw withdrawal latency time at 30 mg/kg, po administered 1 hr prior to carrageenan challenge and measured after 3 hrs by planter test (reference value: 4.13 +/- 0.45 sec); assay type: functional
[3] = Antioxidant activity assessed as DPPH radical scavenging activity at 80 uM/ml incubated for 20 mins by spectrophotometric method relative to control; assay type: functional
Rattus norvegicus [4] = assay: Antiinflammatory activity in Sprague-Dawley rat model of carrageenan-induced thermal hyperalgesia assessed as paw withdrawal latency pressure at 50 mg/kg, po administered 1 hr prior to carrageenan challenge and measured after 1 hr by Von-frey test (reference value: 159.88 +/- 4.66 g); assay type: functional
Rattus norvegicus [5] = assay: Antiinflammatory activity in Sprague-Dawley rat model of carrageenan-induced thermal hyperalgesia assessed as paw withdrawal latency time at 50 mg/kg, po administered 1 hr prior to carrageenan challenge and measured after 4 hrs by planter test (reference value: 5.47 +/- 0.84 sec); assay type: functional
Rattus norvegicus [6] = assay: Antiinflammatory activity in Sprague-Dawley rat model of carrageenan-induced thermal hyperalgesia assessed as paw withdrawal latency pressure at 30 mg/kg, po administered 1 hr prior to carrageenan challenge and measured after 5 hrs by Von-frey test (reference value: 169.58 +/- 4.26 g); assay type: functional
Rattus norvegicus [7] = assay: Analgesic activity in Wistar albino rat assessed as reaction time at 12.5 mg/kg, ip measured after 60 mins for 15 secs by hot plate method (reference value: 4.67 +/- 0.52 sec); assay type: functional
Rattus norvegicus [8] = assay: Antiinflammatory activity in Sprague-Dawley rat model of carrageenan-induced thermal hyperalgesia assessed as paw withdrawal latency pressure at 30 mg/kg, po administered 1 hr prior to carrageenan challenge and measured after 4 hrs by Von-frey test (reference value: 146.61 +/- 1.58 g); assay type: functional
Rattus norvegicus [9] = assay: Antiinflammatory activity in Sprague-Dawley rat model of carrageenan-induced thermal hyperalgesia assessed as paw withdrawal latency pressure at 50 mg/kg, po administered 1 hr prior to carrageenan challenge and measured after 3 hrs by Randall-Selitto test (reference value: 176.84 +/- 8.1 g); assay type: functional
[10] = Antioxidant activity assessed as DPPH radical scavenging activity at 20 uM/ml incubated for 20 mins by spectrophotometric method relative to control; assay type: functional
Rattus norvegicus [11] = assay: Antiinflammatory activity in Wistar albino rat assessed as reduction in carrageenan-induced paw volume at 12.5 mg/kg, ip measured after 2 hrs by plethysmometric method (reference value: 1.58 +/- 0.21 ml); assay type: functional
Rattus norvegicus [12] = assay: Antiinflammatory activity in Wistar albino rat assessed as reduction in carrageenan-induced paw edema at 25 mg/kg, ip measured after 2 hrs by plethysmometric method (reference value: 1.58 +/- 0.21 ml); assay type: functional
Rattus norvegicus [13] = assay: Antiinflammatory activity in Sprague-Dawley rat model of carrageenan-induced thermal hyperalgesia assessed as paw withdrawal latency time at 50 mg/kg, po administered 1 hr prior to carrageenan challenge and measured after 3 hrs by planter test (reference value: 4.13 +/- 0.45 sec); assay type: functional
[14] = Cardiotoxicity in Sprague-Dawley rat assessed as heart rate at 50 mg/kg; assay type: toxicity, organism-based; settings: in vivo
Rattus norvegicus [15] = assay: Antiinflammatory activity in Sprague-Dawley rat model of carrageenan-induced thermal hyperalgesia assessed as paw withdrawal latency time at 30 mg/kg, po administered 1 hr prior to carrageenan challenge and measured after 1 hr by planter test (reference value: 8.88 +/- 0.52 sec); assay type: functional
Rattus norvegicus [16] = assay: Antiinflammatory activity in Sprague-Dawley rat model of carrageenan-induced thermal hyperalgesia assessed as paw withdrawal latency time at 30 mg/kg, po administered 1 hr prior to carrageenan challenge and measured after 5 hrs by planter test (reference value: 7.5 +/- 0.74 sec); assay type: functional
[17] = Cardiotoxicity in Sprague-Dawley rat assessed as SBP rate at 50 mg/kg; assay type: toxicity, organism-based; settings: in vivo
Rattus norvegicus [18] = assay: Analgesic activity in Wistar albino rat assessed as reaction time at 25 mg/kg, ip measured after 30 mins for 15 secs by hot plate method (reference value: 4.21 +/- 0.41 sec); assay type: functional
Rattus norvegicus [19] = assay: Antiinflammatory activity in Wistar albino rat assessed as reduction in carrageenan-induced paw volume at 12.5 mg/kg, ip measured after 1 hr by plethysmometric method (reference value: 1.43 +/- 0.19 ml); assay type: functional
Rattus norvegicus [20] = assay: Antiinflammatory activity in Sprague-Dawley rat model of carrageenan-induced thermal hyperalgesia assessed as paw withdrawal latency pressure at 30 mg/kg, po administered 1 hr prior to carrageenan challenge and measured after 3 hrs by Randall-Selitto test (reference value: 176.84 +/- 8.1 g); assay type: functional
Rattus norvegicus [21] = assay: Antiinflammatory activity in Sprague-Dawley rat model of carrageenan-induced thermal hyperalgesia assessed as paw withdrawal latency pressure at 50 mg/kg, po administered 1 hr prior to carrageenan challenge and measured after 3 hrs by Von-frey test (reference value: 146.61 +/- 1.58 g); assay type: functional
[22] = Antioxidant activity assessed as DPPH radical scavenging activity at 60 uM/ml incubated for 20 mins by spectrophotometric method relative to control; assay type: functional
[23] = target: Prostaglandin G/H synthase 1 (Ovis aries) (UniProt P05979); assay: Inhibition of ovine COX1 assessed as reduction in PGF2alpha at 10 uM incubated for 2 mins using arachidonic acid as substrate by ELISA relative to control
Rattus norvegicus [24] = assay: Antiinflammatory activity in Sprague-Dawley rat model of carrageenan-induced thermal hyperalgesia assessed as paw withdrawal latency time at 30 mg/kg, po administered 1 hr prior to carrageenan challenge and measured after 2 hrs by planter test (reference value: 6.17 +/- 0.58 sec); assay type: functional
[25] = Antioxidant activity assessed as DPPH radical scavenging activity at 40 uM/ml incubated for 20 mins by spectrophotometric method relative to control; assay type: functional
[26] = Ulcerogenicity in Sprague-Dawley rat assessed as formation of ulcer at 50 mg/kg, po after 1 hr by microscopic analysis; assay type: toxicity, organism-based; settings: in vivo
[27] = Ulcerogenicity in Sprague-Dawley rat assessed as formation of ulcer at 30 mg/kg, po after 1 hr by microscopic analysis; assay type: toxicity, organism-based; settings: in vivo
Rattus norvegicus [28] = assay: Antiinflammatory activity in Wistar albino rat assessed as reduction in carrageenan-induced paw volume at 12.5 mg/kg, ip measured after 3 hrs by plethysmometric method (reference value: 1.75 +/- 0.33 ml); assay type: functional
Rattus norvegicus [29] = assay: Antiinflammatory activity in Sprague-Dawley rat model of carrageenan-induced thermal hyperalgesia assessed as paw withdrawal latency time at 50 mg/kg, po administered 1 hr prior to carrageenan challenge and measured after 1 hr by planter test (reference value: 8.88 +/- 0.52 sec); assay type: functional
[30] = Antioxidant activity assessed as DPPH radical scavenging activity at 10 uM/ml incubated for 20 mins by spectrophotometric method relative to control; assay type: functional

Work on CC(=O)N(C1=CC(=O)CCC1)c1ccc(Cl)cc1 yielded an Activity (Rattus norvegicus [1]) of 272.83 g, a Time (Rattus norvegicus [2]) of 6.95 s and an Activity [3] of 83.9%. It also gave an Activity (Rattus norvegicus [4]) of 170 g, a Time (Rattus norvegicus [5]) of 9.58 s and an Activity (Rattus norvegicus [6]) of 161.8 g. For the same compound, the Time (Rattus norvegicus [7]) was 6.85 s, the Activity (Rattus norvegicus [8]) was 159.47 g and the Activity (Rattus norvegicus [9]) was 263.26 g. The Activity [10] was 22.4%, the Activity (Rattus norvegicus [11]) was 1.26 mL and the Activity (Rattus norvegicus [12]) was 1.2 mL. For the same compound, the Time (Rattus norvegicus [13]) was 8.38 s, the Activity [14] was “Non-Toxic” and the Time (Rattus norvegicus [15]) was 10.58 s. For the same compound, the Time (Rattus norvegicus [16]) was 6.37 s, the Activity [17] was “Non-Toxic” and the Time (Rattus norvegicus [18]) was 6.86 s. It also gave an Activity (Rattus norvegicus [19]) of 1.3 mL, an Activity (Rattus norvegicus [20]) of 249.49 g and an Activity (Rattus norvegicus [21]) of 169.23 g. It also gave an Activity [22] of 65.3%, an inhibition [23] of 10.8% and a Time (Rattus norvegicus [24]) of 8.01 s. The Activity [25] was 48%, the UI [26] was 0 and the Activity [27] was “Non-Toxic”. It also gave an Activity (Rattus norvegicus [28]) of 1.18 mL, a Time (Rattus norvegicus [29]) of 12.25 s and an Activity [30] of 6.18%.

— ChEMBL document CHEMBL4359901, “Cyclic enaminone as new chemotype for selective cyclooxygenase-2 inhibitory, anti-inflammatory, and analgesic activities” (Eur J Med Chem, 2019)
